Test results reported in US10155764B2, “Therapeutic compounds and uses thereof” (GENENTECH, INC., priority 2014, dated 2018).
Structures can show the parent of a compound that is named as a salt.

biological target: PCAF719-832 bromodomain (Homo sapiens (Human), UniProt Q92831); assay: PCAF AlphaLisa binding assay; conditions: PCAF bromodomain 225 nM, biotinylated small molecule ligand 6 nM
Sequence (Q92831 719-832): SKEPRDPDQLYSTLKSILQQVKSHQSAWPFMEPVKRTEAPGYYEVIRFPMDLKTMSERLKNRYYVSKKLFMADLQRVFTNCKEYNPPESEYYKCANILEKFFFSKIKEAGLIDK
Method: PCAF bromodomain binding and inhibition of the compounds disclosed herein was assessed by monitoring the engagement of biotinylated small molecule ligand (known to bind to the PCAF bromodomain) with the target using the AlphaLisa technology (Perkin-Elmer).

Point of comparison: `C[C@@H](Nc1nn(C)c(=O)c2[nH]ccc12)[C@@H](c1ccccc1)N(C)C` (single isomer, unassigned) [Example 71B], IC50 83 nM. Against it:
- C[C@H](Nc1nn(C)c(=O)c2ccccc12)[C@H](c1ccc(Oc2ccccn2)cc1)N(C)C (single isomer, unassigned) [Example 80] — 1.8-fold lower, 46 nM
- Cn1nc(N[C@H]2CCCC[C@H]2N)c2ncccc2c1=O (single isomer, unassigned) [Example 14B] — 18-fold higher, 1500 nM
- CC(CN(C)C)Nc1nn(C)c(=O)c2c1CN(c1ccc(Cl)cc1)CC2 (racemic) [Example 90, 6-(4-chlorophenyl)-4-((1-(dimethylamino)propan-2-yl)amino)-2-methyl-5,6,7,8-tetrahydropyrido[3,4-d]pyridazin-1(2H)-one] — 9.9-fold higher, 820 nM
- CNC(=O)c1ccc([C@@H]([C@H](C)Nc2nn(C)c(=O)c3cccnc23)N(C)C)cc1 (single isomer, unassigned) [Example 85] — 1.7-fold lower, 50 nM
- CN(C)[C@H]1CCCC[C@H]1Nc1nn(C)c(=O)c2cccnc12 (single isomer, unassigned) [Example 15A] — within 1.5-fold, 78 nM
- C[C@H](CNc1nn(C)c(=O)c2cccnc12)N(C)C (single isomer, unassigned) [Example 7B] — within 1.5-fold, 72 nM
- C[C@H](Nc1nn(C)c(=O)c2cccnc12)[C@H](c1ccc(Oc2ccccc2)cc1)N(C)C (single isomer, unassigned) [Example 64] — 3.5-fold higher, 290 nM
- CN(C)C(CNc1nn(C)c(=O)c2ccccc12)c1ccccc1 (racemic) [Example 22, 4-((2-(dimethylamino)-2-phenylethyl)amino)-2-methylphthalazin-1(2H)-one] — 1.7-fold higher, 140 nM
- COc1ccc([C@@H]([C@H](C)Nc2nn(C)c(=O)c3ccccc23)N(C)C)cc1 (single isomer, unassigned) [Example 79] — within 1.5-fold, 73 nM
- CC(CN(C)C)Nc1nn(C)c(=O)c2cnccc12 (racemic) [Example 13, 1-((1-(dimethylamino)propan-2-yl)amino)-3-methylpyrido[3,4-d]pyridazin-4(3H)-one] — 1.8-fold higher, 150 nM
- C[C@H](Nc1nn(C)c(=O)c2ccccc12)[C@H](c1ccc(S(=O)(=O)c2ccccc2)cc1)N(C)C [Example 55, 4-(((1S,2S)-1-(dimethylamino)-1-(4-(phenylsulfonyl)phenyl)propan-2-yl)amino)-2-methylphthalazin-1(2H)-one] — within 1.5-fold, 61 nM
- CN(C)C(CNc1nn(C)c(=O)c2ccccc12)c1ccccc1Cl (racemic) [Example 25, 4-((2-(2-chlorophenyl)-2-(dimethylamino)ethyl)amino)-2-methylphthalazin-1(2H)-one] — within 1.5-fold, 110 nM
- CN(C)C(CNc1nn(C)c(=O)c2c1CCCC2)c1ccccc1 (racemic) [Example 36, 4-((2-(dimethylamino)-2-phenylethyl)amino)-2-methyl-5,6,7,8-tetrahydrophthalazin-1(2H)-one] — 9.9-fold higher, 820 nM
- CN(C)[C@@H]1CCCC[C@H]1Nc1nn(C)c(=O)c2cccnc12 (single isomer, unassigned) [Example 11A] — 2.2-fold higher, 180 nM
- C[C@H](Nc1nn(C)c(=O)c2cccnc12)[C@H](c1ccc(C(=O)N(C)Cc2ccccc2)cc1)N(C)C (single isomer, unassigned) [Example 84] — within 1.5-fold, 56 nM
- CN(C)C(CNc1nn(C)c(=O)c2ccccc12)c1ccc(Cl)cc1 (racemic) [Example 27, 4-((2-(4-chlorophenyl)-2-(dimethylamino)ethyl)amino)-2-methylphthalazin-1(2H)-one] — within 1.5-fold, 120 nM
- C[C@H](Nc1nn(C)c(=O)c2cccnc12)[C@H](c1ccc(C(=O)OCc2ccccc2)cc1)N(C)C [Example 87, benzyl 4-((1S,2S)-1-(dimethylamino)-2-((6-methyl-5-oxo-5,6-dihydropyrido[2,3-d]pyridazin-8-yl)amino)propyl)benzoate hydrochloride] — 2.9-fold lower, 29 nM
- CN(C)C(CNc1nn(C)c(=O)c2ccccc12)C1CCCCC1 (racemic) [Example 38, 4-((2-cyclohexyl-2-(dimethylamino)ethyl)amino)-2-methylphthalazin-1(2H)-one] — 8.4-fold higher, 700 nM
- Cn1nc(NCCN2CCC2)c2ccccc2c1=O [Example 50, 4-((2-(azetidin-1-yl)ethyl)amino)-2-methylphthalazin-1(2H)-one] — 12-fold higher, 990 nM
- CN(C)C(CNc1nn(C)c(=O)c2ccccc12)c1ccc(F)cc1 (racemic) [Example 20, 4-((2-(dimethylamino)-2-(4-fluorophenyl)ethyl)amino)-2-methylphthalazin-1(2H)-one] — within 1.5-fold, 110 nM
- C[C@@H](Nc1nn(C)c(=O)c2ccccc12)[C@@H](c1ccccc1)N(C)C (single isomer, unassigned) [Example 73B] — 8.2-fold higher, 680 nM
- Cc1cccc2c(=O)n(C)nc(N[C@@H](C)[C@H](c3ccccc3)N(C)C)c12 (single isomer, unassigned) [Example 70A] — 2.3-fold lower, 36 nM
- C[C@H](Nc1nn(C)c(=O)c2ccccc12)[C@H](c1ccc(OCc2ccccc2)cc1)N(C)C (stereo in doubt) [Example 77, 4-((1-(4-(benzyloxy)phenyl)-1-(dimethylamino)propan-2-yl)amino)-2-methylphthalazin-1(2H)-one] — 2.3-fold lower, 36 nM
- CC[C@H](Nc1nn(C)c(=O)c2ccccc12)[C@H](c1ccccc1)N(C)C (single isomer, unassigned) [Example 56] — 2-fold lower, 41 nM
